Measurements reported in ChEMBL document CHEMBL1201862, “PubChem BioAssay data set” (2004).
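1) Cells in 96-well plates. 2) Compound, 48 h, 5 concentrations. 3) Linear interpolation between surrounding doses. 4) Unreached endpoint = highest concentration. The concentration for 50% growth inhibition is given as GI50.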 Active and inactive are the calls of the source. Cut-off read from the data, not from the text of the source: active = GI50 up to about 1.1 µM and inactive = higher.

Legend:
Test in all cases: NCI anticancer screen, dose series, 48 h
[1] = tested on: HT-29
[2] = tested on: A549
[3] = tested on: SF-295
[4] = tested on: DU-145
[5] = tested on: SF-268
[6] = tested on: MDA-N
[7] = tested on: ACHN
[8] = tested on: U-251
[9] = tested on: MDA-MB-435
[10] = tested on: OVCAR-8
[11] = tested on: COLO 205
[12] = tested on: SK-MEL-2
[13] = tested on: OVCAR-4
[14] = tested on: NCI-H460
[15] = tested on: 786-0
[16] = tested on: M14
[17] = tested on: NCI-H522
[18] = tested on: RPMI-8226

| Compound | GI50 [1] | GI50 [2] | GI50 [3] | GI50 [4] | GI50 [5] | GI50 [6] | GI50 [7] | GI50 [8] | GI50 [9] | GI50 [10] | GI50 [11] | GI50 [12] | GI50 [13] | GI50 [14] | GI50 [15] | GI50 [16] | GI50 [17] | GI50 [18] |
| --- | --- | --- | --- | --- | --- | --- | --- | --- | --- | --- | --- | --- | --- | --- | --- | --- | --- | --- |
| Brc1cccc(Nc2ncnc3sc4c(c23)CCC2(C4)OCCO2)c1 | 45.4 µM (inactive) | 80 µM (inactive) | 32.5 µM (inactive) | 7.28 µM (inactive) | 27.6 µM (inactive) | 33.6 µM (inactive) | 4.68 µM (inactive) | 35.6 µM (inactive) | 28.2 µM (inactive) | 24.5 µM (inactive) | 18 µM (inactive) | 33 µM (inactive) | 20.1 µM (inactive) | 33.3 µM (inactive) | 25.7 µM (inactive) | 31.1 µM (inactive) | 12.3 µM (inactive) | – |
| C=C1CCCCCCCCCCC1[S+]([O-])c1ccccc1 (centres undefined) | 40.3 µM (inactive) | 33.3 µM (inactive) | 42 µM (inactive) | 49.1 µM (inactive) | 27.7 µM (inactive) | 34 µM (inactive) | 29.8 µM (inactive) | 21 µM (inactive) | 23.9 µM (inactive) | – | 25.6 µM (inactive) | > 100 µM (inactive) | 54.5 µM (inactive) | 58.9 µM (inactive) | 18.8 µM (inactive) | 27.7 µM (inactive) | – | 20.8 µM (inactive) |
| COc1ccc(S(=O)(=O)Nc2ccc(-c3csc(N4C(=O)/C(=C/c5cccs5)N=C4c4ccccc4)n3)cc2)cc1Cl | > 100 µM (inactive) | 38.9 µM (inactive) | 10.4 µM (inactive) | 42.2 µM (inactive) | 30.5 µM (inactive) | 34.1 µM (inactive) | 35.4 µM (inactive) | 34.9 µM (inactive) | 44 µM (inactive) | 34 µM (inactive) | 40.6 µM (inactive) | 40.4 µM (inactive) | 40.2 µM (inactive) | 41.1 µM (inactive) | 57.5 µM (inactive) | 34.7 µM (inactive) | 22.3 µM (inactive) | – |
| O=C(NC(Cl)(C(F)(F)F)C(F)(F)F)c1ccc(F)cc1 | > 100 µM (inactive) | > 100 µM (inactive) | > 100 µM (inactive) | > 100 µM (inactive) | > 100 µM (inactive) | > 100 µM (inactive) | > 100 µM (inactive) | > 100 µM (inactive) | > 100 µM (inactive) | > 100 µM (inactive) | > 100 µM (inactive) | > 100 µM (inactive) | > 100 µM (inactive) | > 100 µM (inactive) | > 100 µM (inactive) | > 100 µM (inactive) | – | > 100 µM (inactive) |
| CN(C)C12C=CC=CC3=C(c4ccccc4)C(c4ccccc4)=C(c4ccccc4)C31c1ccccc1C2 (centres undefined) | > 100 µM (inactive) | > 100 µM (inactive) | > 100 µM (inactive) | – | > 100 µM (inactive) | > 100 µM (inactive) | > 100 µM (inactive) | > 100 µM (inactive) | > 100 µM (inactive) | > 100 µM (inactive) | > 100 µM (inactive) | – | > 100 µM (inactive) | > 100 µM (inactive) | > 100 µM (inactive) | > 100 µM (inactive) | > 100 µM (inactive) | > 100 µM (inactive) |
| CCOC(=O)C1=C(C)N(Cc2ccc(Cl)cc2Cl)C2(O)C(OC)CC(=O)C3C(=O)N(c4ccccc4)C(=O)C132 (centres undefined) | 1.75 µM (inactive) | 2.34 µM (inactive) | 4.43 µM (inactive) | 1.06 µM (active) | 2.26 µM (inactive) | – | 3.12 µM (inactive) | 1.5 µM (inactive) | 2.63 µM (inactive) | 1.95 µM (inactive) | 3.64 µM (inactive) | 1.28 µM (inactive) | 1.6 µM (inactive) | 2.92 µM (inactive) | 1.47 µM (inactive) | 2.09 µM (inactive) | 2.01 µM (inactive) | 1.21 µM (inactive) |
| Cn1c(C(O)C2(c3cccnc3)SCCCS2)cc2ccccc21 (centres undefined) | > 100 µM (inactive) | > 100 µM (inactive) | 56.9 µM (inactive) | > 100 µM (inactive) | > 100 µM (inactive) | > 100 µM (inactive) | > 100 µM (inactive) | > 100 µM (inactive) | 90.2 µM (inactive) | > 100 µM (inactive) | > 100 µM (inactive) | > 100 µM (inactive) | 67.8 µM (inactive) | 99.3 µM (inactive) | > 100 µM (inactive) | 89.7 µM (inactive) | – | 38.5 µM (inactive) |
| CCc1cn2c(/C=N/N=C(N)N)c(-c3cc(C)c(Cl)cc3Cl)nc2s1 | 1.22 µM (inactive) | 1.67 µM (inactive) | 0.7 µM (active) | 1.64 µM (inactive) | 1.98 µM (inactive) | – | 1.68 µM (inactive) | 1.53 µM (inactive) | 1.41 µM (inactive) | 1.58 µM (inactive) | 1.64 µM (inactive) | 1.82 µM (inactive) | 1.42 µM (inactive) | 1.86 µM (inactive) | 0.847 µM (active) | 1.65 µM (inactive) | 1.87 µM (inactive) | 1.24 µM (inactive) |
